The assay deals with HSSY-II complex spheroid growth, percent test/control. Nature of the assay: Anticancer human tumor HSSY-II cell line growth inhibition [Asc].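 On all read-outs here: spheroids exposed to drug for 7 days before reading.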 Particulars: for viability, T/C: stronger effect = lower value. The method, then: Multicellular complex tumor spheroid response to apoptosis pathway targeting inhibitors Alrizomadlin, Pelcitoclax, and Dasminapant in combination with a variety of drugs and investigational agents in selected tumor cell lines
The MDM2 inhibitor alrizomadlin, the Bcl-2/Bcl-xL inhibitor pelcitoclax, and the IAPs inhibitor dasminapant were evaluated both individually and in combination with standard of care and investigational anticancer small molecules within a complex spheroid model of solid tumors. . Complex spheroids include a stromal component modeled by human endothelial cells (HUVEC) and fibroblasts modeled by human mesenchymal stem cells (MSCs). The concentration ranges selected for each drug and investigational agent were based upon clinically achievable concentrations if the clinical Cmax of the agent was known.
Compounds. The drugs and investigational agents: alrizomadlin (APG-115; NSC831270), pelcitoclax (APG-1252; NSC835773), dasminapant (APG-1387;NSC834197), TAK-243 (NSC785004), copanlisib (NSC809693), olaparib (NSC753686), talazoparib (NSC767125), cobimetinib (NSC 768068), eltanexor (KPT-8602, NSC 794443), abemaciclib (NSC 768073), sotorasib (NSC818433), adagrasib (NSC 831453), MRTX-1133 (NSC 836407), Iadademestat (ORY1001, NSC 806812), and RMC-4630 (NSC839698), were obtained from the NCI Developmental Therapeutics Program Chemical Repository. The FDA-approved anticancer drug set is available from the Developmental Therapeutics Program at https://dtp.cancer.gov/organization/dscb/obtaining/available plates.htm. […] The stock solutions were prepared in dimethyl sulfoxide (DMSO, Sigma-Aldrich, St. Louis, MO, cat. D2650) at 800-fold the tested concentration and stored at -70 degrees C prior to their use. All drugs and investigational agents were tested over a range starting from a high concentration at or near the clinical Cmax and decreasing in half-log increments. If the clinical Cmax for an agent had not been determined, the highest concentration tested was 10 microM.
The patient-derived cancer (PDC) cell lines include five colon adenocarcinomas: 186277-243-T-J2-PDC, 616215-338-R-J1-PDC, 439559-082-T-J2-PDC, 463943-066-T-J2-PDC, and 519858-162-T-J1-PDC; three pancreatic carcinomas: 323965-272-R-J2-PDC, 521955-158-R6-J3-PDC, and 521955-158-R2-J5-PDC; two uterine sarcomas: 327498-152-R-J2-PDC and 993429-296-R-J1-PDC; two rhabdomyosarcomas: 755483-174-R-J1-PDC and 772245-204-R-J1-PDC; two soft tissue sarcomas: 126254-015-R-J1-PDC and 494315-158-R-J1-PDC; two malignant fibrous histiocytomas: 317291-083-R-J1-PDC and 596521-263-R-J1-PDC; two breast carcinomas: 171881-019-R-J1-PDC and 885512-296-R-J2-PDC; and one ovarian carcinoma: 6556581-035-R-J-PDC were obtained from the NCI PDMR, (https://pdmr.cancer.gov). The established cell lines HSSY-2 synovial sarcoma (RRID:CVCL 8719), SYO-1 synovial sarcoma (RRID:CVCL_7146), MPNST malignant peripheral neural sheath tumor were obtained from the Sloan Kettering Institute. The following established cell lines were purchased from the American Type Culture Collection (ATCC, Manassas, VA), Sor the received from the NCI repository:, PANC-1 pancreatic carcinoma (CRL-1469, RRID:CVCL_0480), OVCAR-5 ovarian carcinoma (RRID:CVCL_1628), OVCAR-8 ovarian carcinoma (RRID:CVCL_1629), , MCF-7 breast carcinoma (CRL-12584, RRID:CVCL_0031), MDA-MB-231 breast carcinoma (CRL-12532, RRID:CVCL_0062), NCI-H1876 small cell lung carcinoma (CRL-5902, RRID:CVCL_1503), NCI-H510A small cell lung carcinoma (HTB-184, RRID:CVCL_1565), NCI-H1417 (CRL-5869, RRID:CVCL_1469), and NCI-H196 small cell lung carcinoma (CRL-5823, RRID:CVCL_1509). Dr. Peter Houghton (Greehey Children's Cancer Research Institute, University of Texas Health Science Center, San Antonio, TX) provided Rh-18 rhabdomyosarcoma (RRID:CVCL_1659). Pooled donor human umbilical vein endothelial cells (HUVEC, Lonza, cat. CC-2519) and human mesenchymal stem cells (hMSC, Lonza, cat. PT-2501) were purchased from Lonza (Walkersville, MD).
Cell Culture. […]

[1] abbreviates: compound alone, run of 10/11/2022.

Where “and” joins values, the source holds several entries; their conditions need not be identical. Identical values can stand only once.

In general, viability, T/C refers to the result in the treated group divided by that in the control group, in per cent. By IC50 is commonly meant the concentration that gives 50% inhibition. As for `C#Cc1c(F)ccc2cc(O)cc(-c3ncc4c(N5CC6CCC(C5)N6)nc(OCC56CCCN5CC(F)C6)nc4c3F)c12` (stereo unspecified), the viability, T/C is, setting by setting: (compound 0.0316 µM) 97.9% and 106% and 112%; (compound 0.1 µM) 101% and 94.9% and 106%; (compound 0.316 µM) 97.4% and 92.7% and 94%; (compound 1 µM) 105% and 102% and 90.2%; (compound 3.16 µM) 91.3% and 93.7% and 92.3%; (compound 10 µM) 74.2% and 53.3% and 44.5%. In addition, the IC50 (curve of compound) was > 10 µM and 8.85 µM.
In the case of `C=C(F)C(=O)N1CCN(c2nc(OCC3CCCN3C)nc3c2CCN(c2cccc4cccc(Cl)c24)C3)CC1CC#N` (stereo unspecified), the viability, T/C is, setting by setting: (compound 0.0316 µM) 102% and 104% and 97.2%; (compound 0.1 µM) 100% and 111% and 98.8%; (compound 0.316 µM) 89.8% and 89.1% and 90.5%; (compound 1 µM) 70.2% and 80.1% and 70%; (compound 3.16 µM) 5.2% and 4.65% and 3.69%; (compound 10 µM) 0.22% and 0.2% and 0.21%. Moreover, the IC50 (curve of compound) is 1.43 µM and 1.58 µM and 1.41 µM.
Turning to `C=CC(=O)N1CCN(c2nc(=O)n(-c3c(C)ccnc3C(C)C)c3nc(-c4c(O)cccc4F)c(F)cc23)C(C)C1` (stereo unspecified), the viability, T/C is, setting by setting: (compound 0.0316 µM) 107% and 90.9% and 100%; (compound 0.1 µM) 108% and 97.8% and 106%; (compound 0.316 µM) 106% and 100% and 99.8%; (compound 1 µM) 106% and 105% and 102%; (compound 3.16 µM) 95.8% and 106% and 103%; (compound 10 µM) 66.7% and 56.7% and 70.2%. Where the note is “curve of compound”, the IC50 is above 10 µM.
With `CCN1C(C(=O)NC23CCC(C(=O)O)(CC2)CC3)C(c2cccc(Cl)c2F)C2(C(=O)Nc3cc(Cl)ccc32)C12CCCCC2` (stereo unspecified), the viability, T/C (compound 0.00949 µM) is 99.7% and 101%; the viability, T/C (compound 0.03 µM) is 89.3% [middle of 15 runs]; the viability, T/C (compound 0.0949 µM) was 62.1% [middle of 15 runs]; the viability, T/C (compound 0.3 µM) is 27% [middle of 15 runs]; the viability, T/C (compound 0.949 µM) was 8.58% [middle of 15 runs]; the viability, T/C (compound 3 µM) is 2.55% [middle of 15 runs]. Moreover, the IC50 under setting [1] was 143 nM [middle of 12 runs]; the IC50 (curve of compound) was 0.133 µM and 0.135 µM.
In the case of `CCN1CCN(Cc2ccc(Nc3ncc(F)c(-c4cc(F)c5nc(C)n(C(C)C)c5c4)n3)nc2)CC1`, the viability, T/C is, setting by setting: (compound 0.00316 µM) 102% and 74.4% and 98.4%; (compound 0.01 µM) 94.4% and 70.5% and 78.7%; (compound 0.0316 µM) 65.6% and 73.6% and 78.9%; (compound 0.1 µM) 59.6% and 44.7% and 74.7%; (compound 0.316 µM) 49.6% and 35.2% and 46.9%; (compound 1 µM) 27.2% and 30.8% and 28.5%. For the same molecule, the IC50 (curve of compound) is 0.201 µM and 0.0805 µM and 0.328 µM.
Regarding `CNC(C)C(=O)NC1CN(S(=O)(=O)c2cccc(S(=O)(=O)N3CCC4CCC(C(=O)NC(c5ccccc5)c5ccccc5)N4C(=O)C(NC(=O)C(C)NC)C3)c2)CCC2CCC(C(=O)NC(c3ccccc3)c3ccccc3)N2C1=O` (stereo unspecified), the viability, T/C is, setting by setting: (compound 0.00316 µM) 102% and 96.8% and 85%; (compound 0.0316 µM) 89.1% [middle of 14 runs]. Besides, the half-maximal inhibitory concentration (IC50) (compound alone, run of 10/24/2022) was above 1 µM; the IC50 (compound alone, run of 11/15/2022) is above 1 µM; the concentration for half-maximal inhibition (IC50) (curve of compound) was above 1 µM.
For the molecule `COc1c(OCCCN2CCOCC2)ccc2c3n(c(=NC(=O)c4cnc(N)nc4)nc12)CCN3`, the viability, T/C is 91.6% and 98.3% and 96.8% (compound 0.00316 µM); 79.1% and 86.2% and 79.5% (compound 0.01 µM); 49.7% and 56.5% and 61.6% (compound 0.0316 µM); 32.7% and 39.2% and 46.4% (compound 0.1 µM); 23.3% and 23.6% and 26.9% (compound 0.316 µM); 13.1% and 13.5% and 11.5% (compound 1 µM). For the same molecule, for the setting “curve of compound”, the IC50 is 0.0368 µM and 0.0531 µM and 0.0718 µM.
Turning to `Cc1c(S(C)(=O)=O)c(-c2cc(F)cc(N3CCN(c4ccc(NS(=O)(=O)c5ccc(NC(CCN6CCC(C(=O)OCCCP(=O)(O)O)CC6)CSc6ccccc6)c(S(=O)(=O)C(F)(F)F)c5)cc4)CC3)c2)c(-c2ccc(Cl)cc2)n1C(C)C` (stereo unspecified), the IC50 under setting [1] is > 10 µM and 2.63 µM.
For `Cc1nc(N2CCC3(CC2)COC(C)C3N)c(CO)nc1Sc1ccnc(N)c1Cl` (stereo unspecified), the viability, T/C (compound 0.00949 µM) is 96.6% and 103% and 111%; the viability, T/C (compound 0.03 µM) was 96.7% and 113% and 106%; the viability, T/C (compound 0.0949 µM) was 96.6% and 108% and 102%; the viability, T/C (compound 0.3 µM) is 99.3% and 106% and 105%; the viability, T/C (compound 0.949 µM) is 91.7% (2×) and 88.5%; the viability, T/C (compound 3 µM) was 67.1% and 75.8% and 68.5%. In addition, for the setting “curve of compound”, the IC50 was above 3 µM.
For the molecule `Cn1ncnc1[C@H]1c2n[nH]c(=O)c3cc(F)cc(c23)N[C@@H]1c1ccc(F)cc1`, the viability, T/C runs as follows: (compound 0.000316 µM) 93.9% and 100% and 96.2%; (compound 0.001 µM) 94.1% and 95.6% and 96.7%; (compound 0.00316 µM) 90.7% and 96% and 83.2%; (compound 0.01 µM) 70.8% and 84.3% and 72.3%; (compound 0.0316 µM) 57.3% and 55.5% and 65.2%; (compound 0.1 µM) 25.6% and 69.3% and 22.8%. The IC50 (curve of compound) was 0.0388 µM and > 0.1 µM and 0.0426 µM.
As for `NC(=O)C(=Cn1cnc(-c2cc(C(F)(F)F)cc(C(F)(F)F)c2)n1)c1cncnc1`, the viability, T/C reads like this: (compound 0.000949 µM) 97.2% and 85.3% and 90.9%; (compound 0.003 µM) 94.1% and 76.9% and 88.4%; (compound 0.00949 µM) 67.6% and 69.8% and 61.6%; (compound 0.03 µM) 46.4% and 29.8% and 40.1%; (compound 0.0949 µM) 18.6% and 11.1% and 9.98%; (compound 0.3 µM) 1.34% and 1.15% and 1.13%. For the same molecule, the IC50 (curve of compound) is 0.0239 µM and 0.0166 µM and 0.0177 µM.
`NC1CCC(NC2CC2c2ccccc2)CC1` (stereo unspecified): the viability, T/C is 71.8% and 62.3% and 60.2% (compound 0.000316 µM); 68.3% and 66.5% and 58.3% (compound 0.001 µM); 58.7% and 61.8% and 52.4% (compound 0.00316 µM); 53.8% and 56.1% and 47% (compound 0.01 µM); 61% and 59.4% and 54.2% (compound 0.0316 µM); 59.8% and 53.7% and 49.7% (compound 0.1 µM). Besides, the IC50 (curve of compound) is above 0.1 µM.
As to `O=C(c1cc(Cc2n[nH]c(=O)c3ccccc23)ccc1F)N1CCN(C(=O)C2CC2)CC1`, the viability, T/C is 87.4% and 98% and 105% (compound 0.0316 µM); 90.4% and 103% and 91.2% (compound 0.1 µM); 86.4% and 63% and 94.2% (compound 0.316 µM); 78.5% and 87.6% and 98.6% (compound 1 µM); 46.7% and 54.1% and 59.5% (compound 3.16 µM); 15.5% and 12.1% and 11.8% (compound 10 µM). Besides, the IC50 (curve of compound) is 2.81 µM and 3.51 µM and 3.97 µM.
As to `O=C(c1ccc(F)c(F)c1Nc1ccc(I)cc1F)N1CC(O)([C@@H]2CCCCN2)C1`, the viability, T/C runs as follows: (compound 0.00316 µM) 97.1% and 106% and 100%; (compound 0.01 µM) 99.7% and 107% and 102%; (compound 0.0316 µM) 83.1% and 103% and 102%; (compound 0.1 µM) 92.8% and 102% and 122%; (compound 0.316 µM) 73.6% and 74.8% and 78.3%; (compound 1 µM) 19.4% and 25.9% and 26%. The IC50 (curve of compound) was 0.522 µM and 0.567 µM and 0.59 µM.

(Values after PubChem BioAssay AID1963444 (Molecular Pharmacology Branch, DTP, NCI, 2024).)
